In the NIST ThermoML archive (doi:10.1021/acs.jced.7b00386):

Settings: Liquid; for mass density: Siemens ultrasonic flowmeter; for viscosity: Capillary tube (Ostwald / Ubbelohde) method

CCCCCCC(=O)OCC [ethyl heptanoate]
Settings | mass density [kg/m3] | viscosity [mPa·s]
303.1 K, 6000 kPa | 867.7 | –
303.19 K, 14980 kPa | 877.5 | –
303.2 K, 100 kPa | 860.8 | –
303.2 K, 3020 kPa | 864.5 | –
303.2 K, 9010 kPa | 871.2 | –
303.21 K, 11950 kPa | 874.5 | –
312.72 K, 9120 kPa | – | 1.006
312.73 K, 100 kPa | – | 0.9036
312.77 K, 6100 kPa | – | 0.9702
312.8 K, 3100 kPa | – | 0.9452
312.96 K, 100 kPa | 851.2 | –
313.06 K, 3060 kPa | 854.7 | –
313.1 K, 12180 kPa | – | 1.033
313.13 K, 6090 kPa | 858.1 | –
313.17 K, 9070 kPa | 861.4 | –
313.17 K, 15010 kPa | 867.9 | –
313.17 K, 15170 kPa | – | 1.06
313.18 K, 12000 kPa | 864.7 | –
322.62 K, 100 kPa | – | 0.7963
322.71 K, 3120 kPa | – | 0.8252
322.76 K, 15110 kPa | – | 0.9293
322.78 K, 6130 kPa | – | 0.8471
322.85 K, 9090 kPa | – | 0.8702
322.91 K, 12080 kPa | – | 0.9036
323.09 K, 100 kPa | 841.6 | –
323.09 K, 15150 kPa | 859.2 | –
323.1 K, 9100 kPa | 852.5 | –
323.11 K, 3100 kPa | 845.2 | –
323.13 K, 12060 kPa | 855.8 | –
323.14 K, 6110 kPa | 848.8 | –
333.05 K, 100 kPa | 832.1 | –
333.14 K, 3010 kPa | 835.6 | –
333.14 K, 9020 kPa | 843.2 | –
333.14 K, 12010 kPa | 846.8 | –
333.18 K, 6080 kPa | 839.7 | –
333.2 K, 15070 kPa | 850.5 | –
333.42 K, 15070 kPa | – | 0.8106
333.45 K, 100 kPa | – | 0.7016
333.5 K, 12100 kPa | – | 0.7844
333.57 K, 3070 kPa | – | 0.7229
333.6 K, 9160 kPa | – | 0.7629
333.63 K, 6130 kPa | – | 0.7431
343.02 K, 100 kPa | 823 | –
343.06 K, 3010 kPa | 827.1 | –
343.16 K, 100 kPa | – | 0.6217
343.19 K, 15000 kPa | 842.1 | –
343.2 K, 9000 kPa | 834.8 | –
343.22 K, 9070 kPa | – | 0.6801
343.22 K, 12050 kPa | – | 0.6996
343.22 K, 12100 kPa | 838.5 | –
343.23 K, 6050 kPa | 831 | –
343.27 K, 3070 kPa | – | 0.6412
343.27 K, 15120 kPa | – | 0.7191
343.38 K, 6080 kPa | – | 0.6593
352.71 K, 100 kPa | – | 0.5547
352.83 K, 3040 kPa | – | 0.5733
352.85 K, 100 kPa | 815.1 | –
352.86 K, 6100 kPa | – | 0.5898
352.9 K, 9030 kPa | – | 0.6068
352.95 K, 3090 kPa | 819.4 | –
352.95 K, 12080 kPa | – | 0.6227
353.04 K, 15040 kPa | – | 0.6414
353.06 K, 9090 kPa | 827.5 | –
353.11 K, 6070 kPa | 823.2 | –
353.14 K, 12070 kPa | 831.2 | –
353.23 K, 15010 kPa | 835.1 | –

CCCCCCCC(=O)OCC [ethyl octanoate]
Settings | mass density [kg/m3] | viscosity [mPa·s]
303.25 K, 100 kPa | 858.1 | –
303.26 K, 12080 kPa | 871 | –
303.3 K, 6080 kPa | 864.4 | –
303.32 K, 3120 kPa | 861.3 | –
303.32 K, 9130 kPa | 867.8 | –
303.33 K, 15080 kPa | 874.1 | –
312.87 K, 100 kPa | – | 1.083
312.96 K, 3120 kPa | – | 1.133
313.03 K, 6060 kPa | – | 1.189
313.05 K, 100 kPa | 849.5 | –
313.08 K, 6150 kPa | 856.1 | –
313.08 K, 9090 kPa | – | 1.211
313.1 K, 9150 kPa | 859.6 | –
313.1 K, 12100 kPa | 862.7 | –
313.11 K, 15110 kPa | 865.9 | –
313.12 K, 3140 kPa | 853 | –
313.12 K, 12070 kPa | – | 1.245
313.14 K, 15240 kPa | – | 1.284
323 K, 100 kPa | 841.1 | –
323.07 K, 100 kPa | – | 0.9464
323.09 K, 3130 kPa | 844.7 | –
323.1 K, 6150 kPa | 848.1 | –
323.13 K, 9110 kPa | 851.4 | –
323.14 K, 12140 kPa | 854.8 | –
323.16 K, 3150 kPa | – | 0.9842
323.16 K, 15050 kPa | 858.1 | –
323.17 K, 6110 kPa | – | 1.016
323.17 K, 9080 kPa | – | 1.043
323.17 K, 12070 kPa | – | 1.064
323.19 K, 15060 kPa | – | 1.098
333 K, 100 kPa | 832.2 | –
333.14 K, 100 kPa | – | 0.8143
333.14 K, 3100 kPa | 836.2 | –
333.18 K, 6080 kPa | 839.7 | –
333.18 K, 9090 kPa | 843.3 | –
333.2 K, 12100 kPa | 846.9 | –
333.21 K, 15100 kPa | 850.3 | –
333.29 K, 3110 kPa | – | 0.8536
333.3 K, 6060 kPa | – | 0.8851
333.3 K, 9130 kPa | – | 0.9101
333.3 K, 15090 kPa | – | 0.9551
333.31 K, 12040 kPa | – | 0.9301
342.78 K, 100 kPa | – | 0.731
343.07 K, 6130 kPa | – | 0.7776
343.1 K, 12150 kPa | 838.8 | –
343.11 K, 100 kPa | 823.6 | –
343.11 K, 3120 kPa | 827.8 | –
343.14 K, 6100 kPa | 831.7 | –
343.16 K, 9070 kPa | 835 | –
343.16 K, 9090 kPa | – | 0.7968
343.17 K, 15000 kPa | 842.1 | –
343.22 K, 12100 kPa | – | 0.8165
343.27 K, 15050 kPa | – | 0.8446
343.41 K, 3120 kPa | – | 0.7572
353.1 K, 100 kPa | 814.5 | –
353.16 K, 9130 kPa | 826.8 | –
353.21 K, 100 kPa | – | 0.6393
353.21 K, 3150 kPa | 819 | –
353.24 K, 15070 kPa | 834.4 | –
353.25 K, 12140 kPa | 830.7 | –
353.27 K, 6150 kPa | 823 | –
353.32 K, 3120 kPa | – | 0.6742
353.35 K, 6090 kPa | – | 0.691
353.35 K, 12080 kPa | – | 0.7292
353.36 K, 15060 kPa | – | 0.7479
353.38 K, 9070 kPa | – | 0.707
